From patent US12458695B2, “Dosing regimens and related compositions and methods” (Apellis Pharmaceuticals, Inc., priority 2017, dated 2025)

Assays:
[1] = system: alternative pathway-mediated erythrocyte lysis; conditions: alternative pathway-mediated erythrocyte lysis assay (WO2004/026328); cited from earlier work
complement activation = conditions: relative to compstatin amidated at the C-terminus; published data; cited from earlier work
[2] = Inhalation studies, single dose and 14 day repeated dose; conditions: cynomolgus monkey, in vivo, inhaled or intranasal; 14 day repeated dose; read-out: highest inhaled dose tested without drug-related findings
Experimental: Inhalation studies of single dose or repeated dosing were conducted in dog and cynomolgus monkey. […] These doses were 25 mg/kg/d in a 7 day repeated dose study in the dog, 80 mg/kg in a single dose study in the monkey, and 30 mg/kg/day in a 14 day repeated dose in the monkey.

[3] = Phase 1 single and multiple ascending dose trial of nebulized CA28 in healthy volunteers; assay type: in vivo, human
Experimental: In the single ascending dose part of the trial, 16 subjects were enrolled in four cohorts of four subjects each.
Four subjects were enrolled in the first cohort of the multiple ascending dose part of the trial. These subjects were to receive 14 consecutive days of treatment with a 60 mg/day dose of the drug. […] The trial was paused and subsequently resumed, with subjects receiving 30 mg/day. […] The trial was then terminated.
Both subjects responded within hours to first-line antibiotic treatment, which is indicative of bacterial pathogenesis. In this trial, subjects were vaccinated against Neisseria meningitides and closely monitored for signs of infections. While the bacterial cultures were all negative, it is believed that Haemophilus influenzae or Streptococcus pneumoniae might have been implicated in the episodes of fever that were observed because C3 deficient individuals are known to be at increased risk of infection with Neisseria meningitidis, Haemophilus influenzae and Streptococcus pneumoniae. Vaccines against these three pathogens are available, and it is believed that the risk of infection can be addressed by vaccination, potentially with addition of prophylactic antibiotics (e.g., penicillin V).

Row | Molecule | Activity over compstatin (complement activation) [xmore] | other results
1 | CC[C@H](C)[C@H](N)C(=O)N[C@H]1CSSC[C@@H](C(=O)N[C@H](C(N)=O)[C@@H](C)O)NC(=O)[C@H](CCCN=C(N)N)NC(=O)[C@H](Cc2cnc[nH]2)NC(=O)[C@H](Cc2cnc[nH]2)NC(=O)CNC(=O)[C@H](Cc2c[nH]c3ccccc23)NC(=O)[C@H](CC(=O)O)NC(=O)[C@H](CCC(N)=O)NC(=O)[C@H](C(C)C)NC(=O)[C@H](C(C)C)NC1=O [Compstatin] | – | IC50 [1]: 12 µM
2 | Ac-ICVWQDWGAHRCT-CONH2 [Ac-V4W/H9A] | 45 | –
3 | CC[C@H](C)[C@H](NC(C)=O)C(=O)N[C@H]1CSSC[C@@H](C(=O)N[C@H](C(N)=O)[C@@H](C)O)NC(=O)[C@H](CCCNC(=N)N)NC(=O)[C@H](Cc2cnc[nH]2)NC(=O)[C@H](C)NC(=O)CNC(=O)[C@H](Cc2c[nH]c3ccccc23)NC(=O)[C@H](CC(=O)O)NC(=O)[C@H](CCC(N)=O)NC(=O)[C@H](Cc2cn(C)c3ccccc23)NC(=O)[C@H](C(C)C)NC1=O [CA28] | – | NOAEL at 336 h [2]: 30 mg/kg/day; adverse event possibly related to pharmacology ([3]; 30 mg/day inhaled, after 10 days of treatment): Another subject developed signs and symptoms consistent with a potential bacterial infection; adverse event possibly related to pharmacology ([3]; 60 mg/day inhaled, following nine days of treatment): one subject developed signs and symptoms consistent with a potential bacterial infection; safety and tolerability ([3]; single inhaled dose 20, 60, 150 or 350 mg): well tolerated and no serious adverse events were reported
4 | Ac-ICVWQDWGAHRCdT-COOH [Ac-V4W/H9A/T13dT-OH] | 55 | –
5 | Ac-ICV(1-Nal)QDWGAHRCT-COOH [Ac V4(1-Nal)/H9A-OH] | 30 | –
6 | Ac-ICV(2-Igl)QDWGAHRCT-CONH2 [Ac-V42Igl/H9A] | 39 | –
7 | Ac-ICV(2-Nal)QDWGAHRCT-COOH [Ac V4(2-Nal)/H9A-OH] | 38 | –
8 | Ac-ICV(Bpa)QDWGAHRCT-COOH [Ac-V4(Bpa)/H9A-OH] | 49 | –
9 | Ac-ICV(Bpa)QDWGAHRCT-CONH2 [Ac-V4(Bpa)/H9A] | 86 | –
10 | Ac-ICVDhtQDWGAHRCT-COOH [Ac-V4Dht/H9A-OH] | 5 | –
11 | Ac-ICV(5fW)QDWGAHRCT-CONH2 [Ac-V4(5fW)/H9A] | 31 | –
12 | Ac-ICV(Bta)QDWGAHRCT-COOH [Ac-V4(Bta)/H9A-OH] | 65 | –
13 | Ac-ICV(5-methyl-W)QDWGAHRCT-CONH2 [Ac-V4(5-MeW)/H9A] | 67 | –
14 | Ac-ICV(2-Nal)QDWGAHRCT-CONH2 [Ac-V4(2-Nal)/H9A] | 99 | –
15 | H-GICV(6fW)QD(6fW)GAHRCTN-COOH (GICVXQDXGAHRCTN; not fully specified; 6-fluoro-Trp at V4 and W7; SITE 1 N-term H; MOD_RES 5 6-fluoro-L-tryptophan; MOD_RES 8 6-fluoro-L-tryptophan; SITE 15 C-term COOH) [+G/V4(6fW)/W7(6fW)H9A+N-OH] | 126 | –
16 | Ac-ICVVQDWGHHRCT-CONH2 [Ac-compstatin] | 3 | –
17 | Ac-ICV(2-Igl)QDWGAHRCT-COOH [Ac-V42Igl/H9A-OH] | 37 | –
18 | Ac-ICV(Bta)QDWGAHRCT-CONH2 [Ac-V4(Bta)/H9A] | 64 | –
19 | Ac-ICVYQDWGAHRCT-CONH2 [Ac-V4Y/H9A] | 14 | –
